The values that follow come from patent US20110201642A1, “Bioactive Compounds” (priority 2008, published 2011).

Holding throughout (assay type): cell-based
The test system of assay [1] is HCT116 (ATCC CCL-247) human colon cancer cell line. Description: MTT cytotoxic assay against HCT116 (96 h). The protocol:
(§1) Human breast cancer, MCF7 (ATCC HTB-22) and human colon cancer, HCT116 (ATCC CCL-247) cell lines were all maintained in RPMI 1640 (Sigma), supplemented with 10% Foetal Bovine Serum (FBS, PAA Laboratories). Cells of 80-85% confluence were harvested and plated onto 96-flat bottom well plates for experimental use. In all experiments, cells were incubated in a CO2 incubator at 37° C. with 5% CO2 overnight prior to treatment.
(§2) Compounds were tested against MCF7 and HCT116 and incubated for 96 h before cytotoxic assay using the MTT (3-(4,5-dimethylthiazole-2-yl)-2,5-diphenyltetrazolium bromide) assay according to Mosmann (J. Immunol Meth. 65 (1983) 55-63). Plates were read using an Elisa plate reader at 520 nm. Data generated was used to plot a dose response curve. Cytotoxic activity was expressed as the mean concentration of extract required to kill 50% of the cell population (IC50).

Assay [2] relates to P388 murine leukemia cell line. Description: Cytotoxicity against P388 murine leukemia cell line. As to conditions: for IC50: Mus musculus, P388 murine leukemia. The protocol: The Compounds A1-A5 were assayed against three cell lines: murine leukemia, P388; human breast cancer, MCF7 (ATCC HTB-22); and human colon cancer, HCT116 (ATCC CCL-247).
For assay [3], the system named is MCF7 (ATCC HTB-22) human breast cancer cell line. Description: MTT cytotoxic assay against MCF7 (96 h). As to conditions: for IC50: Homo sapiens, MCF7, 96 h. The protocol: as §1, §2
[4] abbreviates: Homo sapiens, HCT-116, 96 h, read-out: IC50 (nM) HCT116.
[5] abbreviates: Homo sapiens, HCT-116, 96 h, read-out: IC50 (ng/mL) HCT116.

SMILES strings stand for the structures. Read-outs that look alike come from different tables or passages of the source.

Regarding `CCC(C)C1NC(=O)C(C(O)C(C)C)NC(=O)C2CCCCN2C(=O)C(C)N(C)C(=O)C(CC(C)C)NC(=O)C(C(O)C(C)C)N(C)C(=O)C(C)N(C)C1=O` (stereo not shown) [Compound A2], the IC50 in assay [1] (setting [4]) was 11.6 nM; in assay [1] (setting [5]), 9.3 ng/mL; in assay [2] (read-out: IC50 (nM) P388), 56 nM; in assay [2] (read-out: IC50 (ng/mL) P388), 45 ng/mL; in assay [3] (read-out: IC50 (nM) MCF7) it was 8.3 nM; in assay [3] (read-out: IC50 (ng/mL) MCF7), 6.6 ng/mL.

For the compound `O=c1[nH]cc(F)c(=O)[nH]1` [5-fluorouracil, reference compound], the IC50 in assay [1] (HCT-116, HCT116 human colon cancer, MTT, 96 h, read-out: IC50 (ng/mL) HCT116) was 910 ng/mL.

Regarding `C=CC(C)CC1NC(=O)C(C(O)C(C)C)N(C)C(=O)C(C)N(C)C(=O)C(C(C)CC)NC(=O)C(C(O)C(C)C)NC(=O)C2CCCCN2C(=O)C(C)N(C)C1=O` (stereo not shown) [Compound A3], the IC50 in assay [1] (setting [4]) amounted to 0.3 nM; in assay [1] (setting [5]), 0.2 ng/mL; in assay [2] (read-out: IC50 (nM) P388) it was 1.3 nM; in assay [2] (read-out: IC50 (ng/mL) P388) it was 1 ng/mL; in assay [3] (read-out: IC50 (nM) MCF7), 0.9 nM; in assay [3] (read-out: IC50 (ng/mL) MCF7), 0.73 ng/mL.

Regarding `C=CC(C)CC1NC(=O)C(C(O)C(C)CC)N(C)C(=O)C(C)N(C)C(=O)C(C(C)CC)NC(=O)C(C(O)C(C)C)NC(=O)C2CCCCN2C(=O)C(C)N(C)C1=O` (stereo not shown) [Compound A5], the IC50 is 0.3 nM in assay [1] (setting [4]); 0.2 ng/mL in assay [1] (setting [5]); 0.13 nM in assay [2] (read-out: IC50 (nM) P388); 0.1 ng/mL in assay [2] (read-out: IC50 (ng/mL) P388); 1 nM in assay [3] (read-out: IC50 (nM) MCF7); 0.8 ng/mL in assay [3] (read-out: IC50 (ng/mL) MCF7). Further, in assay [2] (P388 data), the “factor between the least active, Compound A2, and the most active, Compound A5” value is around 450.

Take `CCC(C)CC1NC(=O)C(C(O)C(C)C)N(C)C(=O)C(C)N(C)C(=O)C(C(C)CC)NC(=O)C(C(O)C(C)C)NC(=O)C2CCCCN2C(=O)C(C)N(C)C1=O` (stereo not shown) [Compound A4]: the IC50 in assay [1] (setting [4]) was determined as 3.9 nM; in assay [1] (setting [5]), 3.1 ng/mL; in assay [2] (read-out: IC50 (nM) P388), 24 nM; in assay [2] (read-out: IC50 (ng/mL) P388), 19 ng/mL; in assay [3] (read-out: IC50 (nM) MCF7) it was 7.1 nM; in assay [3] (read-out: IC50 (ng/mL) MCF7), 5.7 ng/mL.

On to `N.N.[Cl][Pt][Cl]` [cisplatin, reference compound], for which the “IC50 (ng/mL) HCT116” value in assay [1] (HCT116 human colon cancer, MTT, 96 h) is on record as 1650 ng/mL. Moreover, the “IC50 (ng/mL) MCF7” value in assay [3] (MCF7 human breast cancer, MTT, 96 h) was determined as 8705 ng/mL.

In the case of `C=CC(C)CC1NC(=O)C(C(O)C(C)C)N(C)C(=O)C(C)N(C)C(=O)C(C(C)C)NC(=O)C(C(O)C(C)C)NC(=O)C2CCCCN2C(=O)C(C)N(C)C1=O` (stereo not shown) [Compound A1], the IC50 in assay [1] (setting [4]) came to 5.9 nM; in assay [1] (setting [5]) it was 4.7 ng/mL; in assay [2] (read-out: IC50 (nM) P388), 3.8 nM; in assay [2] (read-out: IC50 (ng/mL) P388) it was 3 ng/mL; in assay [3] (read-out: IC50 (nM) MCF7), 8.1 nM; in assay [3] (read-out: IC50 (ng/mL) MCF7), 6.5 ng/mL.
